Values of other authors as cited in patent US20040167185A1, “Methods of treating conditions associated with an Edg-3 receptor” (priority 2003, published 2004).
Structures can show the parent of a compound that is named as a salt. One block for each compound: values may come before it.

Columns and labels:
Adrenergic β = conditions: Kd of the radioligand; Wistar rat brain; historical value
[1] = target: Adrenergic α1, non-selective
[2] = target: Serotonin 5-HT1, non-selective; conditions: Kd of the radioligand; Wistar rat cerebral cortex; historical value
Angiotensin AT2 = target: T1, Angiotensin AT2 (Homo sapiens, UniProt P50052); conditions: Kd of the radioligand; Human recombinant Hela cells; historical value
T1 construct: expressed in transfected cells; host or cells: Hela cells
T1 sequence (P50052 1-363): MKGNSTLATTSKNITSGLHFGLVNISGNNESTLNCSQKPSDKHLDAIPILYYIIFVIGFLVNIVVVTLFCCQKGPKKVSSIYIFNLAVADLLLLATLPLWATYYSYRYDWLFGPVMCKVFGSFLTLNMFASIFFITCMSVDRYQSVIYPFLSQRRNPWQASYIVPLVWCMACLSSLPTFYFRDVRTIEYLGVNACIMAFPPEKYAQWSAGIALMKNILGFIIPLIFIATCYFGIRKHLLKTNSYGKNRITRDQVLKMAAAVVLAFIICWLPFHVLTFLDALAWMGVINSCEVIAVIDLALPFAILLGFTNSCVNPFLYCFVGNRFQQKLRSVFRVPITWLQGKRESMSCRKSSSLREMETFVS

Kd (Adrenergic β): 500 pM
Compound: CCCc1ccccc1OCC(O)CNC(C)C (stereo not shown) [^3H Dihydroaplenolol, Dihydroaplenolol]

Compound: COc1cc2nc(N3CCN(C(=O)c4ccco4)CC3)nc(N)c2cc1OC [^3H Prazosin, Prazosin]
Kd [1]: 290 pM

Compound: NCCc1c[nH]c2ccc(O)cc12 [^3H Serotonin (5-HT) Trifluoroacetate, Serotonin (5-HT) Trifluoroacetate]
Kd [2]: 610 pM

Kd (Angiotensin AT2): 12 pM
Compound: CGP-42112A [^125I CGP-42112A]
